Experimental data from US7842802B2, “Vinorelbine derivatives” (priority 2003, dated 2010).
Read-outs that look alike come from different tables or passages of the source.

Columns and labels:
[1] = tested on: MCF-7 human breast carcinoma line; experiment: MCF-7 GI50 determination (crystal violet); format: cell-based; details: Homo sapiens, MCF7, 96 h, read-out: MCF-7 Cells GI50
Description: Growth inhibition (GI50) values were measured on the human breast carcinoma line, MCF-7. MCF-7 cells were plated at 2×10^4 cells/well in 96 well plates and grown for 24 hours in drug free media. On day 2, test compounds were added to the plates at 10-fold dilutions. Four days later, cells were fixed by the addition of glutaraldehyde to 0.75%. After 30 min, the fixed cells were extensively rinsed with distilled water and dried at room temperature for one hour. The cells were then stained with a 0.2% crystal violet solution for one hour at room temperature. Unbound stain was removed by ten rinses with tap water and plates were allowed to air dry for 30 min. The crystal violet was then solubilized by the addition of 10% acetic acid for 15 min and quantified by measuring absorbance at 570 nm on a Molecular Devices microplate reader. Growth inhibition was calculated according to the following equation: GI=[…], where the optical density (OD) of the test well after 4 days of treatment was T, the OD of the wells in the control plate on day 0 was T0. Plots of percent growth inhibition versus inhibitor concentration were used to determine the GI50.

[2] = tested on: HeLa S-3 human cervical carcinoma cell line; experiment: HeLa GI50 determination (SRB); format: cell-based; details: Homo sapiens, HeLa S3, 48 h, read-out: HeLa Cells GI50
Description: Growth inhibition (GI50) values were measured on the human cervical carcinoma cell line, HeLa S-3, which were selected for growth on plastic. The HeLa cell assay was based on the description of Skehan et al., J. Natl. Cancer Inst., 82:1107-12 (1990), which is hereby incorporated by reference in its entirety. HeLa cells were plated at 2×10^4 cells/well in 96 well plates. One day later, a control plate was fixed by the addition of TCA to 5%. After five rinses with tap water, the plate was air-dried and stored at 4° C. Test compounds were added to the remaining plates at 10-fold dilutions. Two days later, all plates were fixed as described above. Cells were then stained by the addition of 100 μL per well of 0.4% sulforhodamine B (SRB) in 1% acetic acid for 30 min at 4° C. Wells were then quickly rinsed 5× with 1% acetic acid and allowed to air dry. The SRB was then solubilized by the addition of 100 μL per well of unbuffered 10 mM Tris base. Dye was quantified by measuring absorbance at 490 nm on a Molecular Devices microplate reader. Growth inhibition was calculated according to the following equation: GI=100×(T−T0)/(C−T0), where the optical density (OD) of the test well after 2 days of treatment was T, the OD of the wells in the control plate on day 0 was T0 and C was the OD of untreated wells. Plots of percent growth inhibition versus inhibitor concentration were used to determine the GI50.

[3] = MCF-7, 4 days of treatment, crystal violet
[4] = HeLa S-3, 2 days of treatment, SRB

SMILES	GI50 [1, 3]	GI50 [2, 4]	GI50 [1]	GI50 [2]
C=Cc1ccc2[nH]c3c(c2c1)CN1CC(CC)=C[C@@H](C1)C[C@]3(C(=O)OC)c1cc2c(cc1OC)N(C)[C@H]1[C@@](O)(C(=O)OC)[C@H](OC(C)=O)C3C(CC)=CCN4CC[C@]21[C@H]34 (stereo partly drawn) [Example 3, 11′-vinylvinorelbine]	0.007 µM	0.003 µM	–	–
CCCC(=O)/C=C/c1ccc2[nH]c3c(c2c1)CN1CC(CC)=C[C@@H](C1)C[C@]3(C(=O)OC)c1cc2c(cc1OC)N(C)[C@H]1[C@@](O)(C(=O)OC)[C@H](OC(C)=O)C3C(CC)=CCN4CC[C@]21[C@H]34 (stereo partly drawn) [Example 4, 11′-(3-oxohex-1-enyl) vinorelbine]	0.3 µM	0.4 µM	–	–
CCC1=C[C@H]2CN(C1)Cc1c([nH]c3ccc(/C=C/C(=O)OC(C)(C)C)cc13)[C@@](C(=O)OC)(c1cc3c(cc1OC)N(C)[C@H]1[C@@](O)(C(=O)OC)[C@H](OC(C)=O)C4C(CC)=CCN5CC[C@]31[C@H]45)C2 (stereo partly drawn) [Example 5, 11′-(2-tert-butoxycarbonylvinyl) vinorelbine]	–	–	0.6 µM	0.3 µM
CCC1=C[C@H]2CN(C1)Cc1c([nH]c3ccc(/C=C/C(=O)O)cc13)[C@@](C(=O)OC)(c1cc3c(cc1OC)N(C)[C@H]1[C@@](O)(C(=O)OC)[C@H](OC(C)=O)C4C(CC)=CCN5CC[C@]31[C@H]45)C2 (stereo partly drawn) [Example 6, 11′-(carboxyvinyl) vinorelbine]	> 1 µM	0.8 µM	–	–
CCC1=C[C@H]2CN(C1)Cc1c([nH]c3ccc(SCCC(=O)OC)cc13)[C@@](C(=O)OC)(c1cc3c(cc1OC)N(C)[C@H]1[C@@](O)(C(=O)OC)[C@H](OC(C)=O)C4C(CC)=CCN5CC[C@]31[C@H]45)C2 (stereo partly drawn) [Example 7, 11′-(methoxycarbonylethylsulfanyl) vinorelbine]	0.4 µM	0.2 µM	–	–
CCC1=C[C@H]2CN(C1)Cc1c([nH]c3ccc(S)cc13)[C@@](C(=O)OC)(c1cc3c(cc1OC)N(C)[C@H]1[C@@](O)(C(=O)OC)[C@H](OC(C)=O)C4C(CC)=CCN5CC[C@]31[C@H]45)C2 (stereo partly drawn) [Example 8, 11′-thiovinorelbine]	0.06 µM	0.04 µM	–	–
CCC1=C[C@H]2CN(C1)Cc1c([nH]c3ccc(SCC(=O)OC)cc13)[C@@](C(=O)OC)(c1cc3c(cc1OC)N(C)[C@H]1[C@@](O)(C(=O)OC)[C@H](OC(C)=O)C4C(CC)=CCN5CC[C@]31[C@H]45)C2 (stereo partly drawn) [Example 9, 11′-(methoxycarbonylmethylsulfanyl) vinorelbine]	0.03 µM	0.02 µM	–	–
CCC1=C[C@H]2CN(C1)Cc1c([nH]c3ccc(SC)cc13)[C@@](C(=O)OC)(c1cc3c(cc1OC)N(C)[C@H]1[C@@](O)(C(=O)OC)[C@H](OC(C)=O)C4C(CC)=CCN5CC[C@]31[C@H]45)C2 (stereo partly drawn) [Example 10, 11′-(methylsulfanyl) vinorelbine]	0.001 µM	0.0003 µM	–	–
CCSc1ccc2[nH]c3c(c2c1)CN1CC(CC)=C[C@@H](C1)C[C@]3(C(=O)OC)c1cc2c(cc1OC)N(C)[C@H]1[C@@](O)(C(=O)OC)[C@H](OC(C)=O)C3C(CC)=CCN4CC[C@]21[C@H]34 (stereo partly drawn) [Example 11, 11′-(ethylsulfanyl) vinorelbine]	0.02 µM	0.005 µM	–	–
CCC1=C[C@H]2CN(C1)Cc1c([nH]c3ccc(SCCCCO)cc13)[C@@](C(=O)OC)(c1cc3c(cc1OC)N(C)[C@H]1[C@@](O)(C(=O)OC)[C@H](OC(C)=O)C4C(CC)=CCN5CC[C@]31[C@H]45)C2 (stereo partly drawn) [Example 12, 11′-(4-hydroxybutylsulfanyl)vinorelbine]	0.04 µM	0.02 µM	–	–
CCC1=C[C@H]2CN(C1)Cc1c([nH]c3ccc(SCCCO)cc13)[C@@](C(=O)OC)(c1cc3c(cc1OC)N(C)[C@H]1[C@@](O)(C(=O)OC)[C@H](OC(C)=O)C4C(CC)=CCN5CC[C@]31[C@H]45)C2 (stereo partly drawn) [Example 13, 11′-(3-hydroxypropylsulfanyl)vinorelbine]	0.03 µM	0.02 µM	–	–
CCC1=C[C@H]2CN(C1)Cc1c([nH]c3ccc(SCCO)cc13)[C@@](C(=O)OC)(c1cc3c(cc1OC)N(C)[C@H]1[C@@](O)(C(=O)OC)[C@H](OC(C)=O)C4C(CC)=CCN5CC[C@]31[C@H]45)C2 (stereo partly drawn) [Example 14, 11′-(2-hydroxyethylsulfanyl)vinorelbine]	0.05 µM	0.03 µM	–	–
CCC1=C[C@H]2CN(C1)Cc1c([nH]c3ccc(SCc4ccccc4F)cc13)[C@@](C(=O)OC)(c1cc3c(cc1OC)N(C)[C@H]1[C@@](O)(C(=O)OC)[C@H](OC(C)=O)C4C(CC)=CCN5CC[C@]31[C@H]45)C2 (stereo partly drawn) [Example 15, 11′-(2-fluorobenzylsulfanyl)vinorelbine]	0.4 µM	0.2 µM	–	–
CCC1=C[C@H]2CN(C1)Cc1c([nH]c3ccc(SCc4ccccc4Cl)cc13)[C@@](C(=O)OC)(c1cc3c(cc1OC)N(C)[C@H]1[C@@](O)(C(=O)OC)[C@H](OC(C)=O)C4C(CC)=CCN5CC[C@]31[C@H]45)C2 (stereo partly drawn) [Example 16, 11′-(2-chlorobenzylsulfanyl)vinorelbine]	0.5 µM	0.3 µM	–	–
CCC1=C[C@H]2CN(C1)Cc1c([nH]c3ccc(Sc4ccccc4)cc13)[C@@](C(=O)OC)(c1cc3c(cc1OC)N(C)[C@H]1[C@@](O)(C(=O)OC)[C@H](OC(C)=O)C4C(CC)=CCN5CC[C@]31[C@H]45)C2 (stereo partly drawn) [Example 17, 11′-(phenysulfanyl) vinorelbine]	0.3 µM	0.02 µM	–	–
CCC1=C[C@H]2CN(C1)Cc1c([nH]c3ccc(Sc4cccc(O)c4)cc13)[C@@](C(=O)OC)(c1cc3c(cc1OC)N(C)[C@H]1[C@@](O)(C(=O)OC)[C@H](OC(C)=O)C4C(CC)=CCN5CC[C@]31[C@H]45)C2 (stereo partly drawn) [Example 18, 11′-(3-hydroxyphenysulfanyl)vinorelbine]	0.3 µM	0.03 µM	–	–
CCC1=C[C@H]2CN(C1)Cc1c([nH]c3ccc([S+]([O-])CCO)cc13)[C@@](C(=O)OC)(c1cc3c(cc1OC)N(C)[C@H]1[C@@](O)(C(=O)OC)[C@H](OC(C)=O)C4C(CC)=CCN5CC[C@]31[C@H]45)C2 (stereo partly drawn) [Example 19, 11′-(3-hydroxyethylsulfinyl)vinorelbine]	> 1 µM	0.3 µM	–	–
CCC1=C[C@H]2CN(C1)Cc1c([nH]c3ccc([S+]([O-])CCCO)cc13)[C@@](C(=O)OC)(c1cc3c(cc1OC)N(C)[C@H]1[C@@](O)(C(=O)OC)[C@H](OC(C)=O)C4C(CC)=CCN5CC[C@]31[C@H]45)C2 (stereo partly drawn) [Example 20, 11′-(3-hydroxypropylsulfinyl)vinorelbine]	0.3 µM	0.04 µM	–	–
C#Cc1ccc2[nH]c3c(c2c1)CN1CC(CC)=C[C@@H](C1)C[C@]3(C(=O)OC)c1cc2c(cc1OC)N(C)[C@H]1[C@@](O)(C(=O)OC)[C@H](OC(C)=O)C3C(CC)=CCN4CC[C@]21[C@H]34 (stereo partly drawn) [Example 21, 11′-ethynylvinorelbine]	0.005 µM	0.0004 µM	–	–
CCCCC#Cc1ccc2[nH]c3c(c2c1)CN1CC(CC)=C[C@@H](C1)C[C@]3(C(=O)OC)c1cc2c(cc1OC)N(C)[C@H]1[C@@](O)(C(=O)OC)[C@H](OC(C)=O)C3C(CC)=CCN4CC[C@]21[C@H]34 (stereo partly drawn) [Example 22, 11′-hexynylvinorelbine]	0.05 µM	0.04 µM	–	–
CCC1=C[C@H]2CN(C1)Cc1c([nH]c3ccc(C#CCC(C)C)cc13)[C@@](C(=O)OC)(c1cc3c(cc1OC)N(C)[C@H]1[C@@](O)(C(=O)OC)[C@H](OC(C)=O)C4C(CC)=CCN5CC[C@]31[C@H]45)C2 (stereo partly drawn) [Example 23, 11′-(4-methylpentynyl) vinorelbine]	0.3 µM	0.3 µM	–	–
